The source of these data is patent US6589985B2, “Carbamate compounds for use in preventing or treating movement disorders” (Ortho-McNeil Pharmaceutical, Inc., priority 2001, dated 2003).

Test [1] deals with essential tremor. The note with it: open-label report, essential tremor patients; cited from earlier work.
For a further test, the system named is harmaline-induced tremor. Kind of test: Harmaline-induced tremors in rats. Type of test: in vivo, Sprague-Dawley rats. The note with it: for Tremor Score Median: harmaline 6 mg/kg i.p. 60 min later, observed 30 min, vehicle median 6.00, p<0.01 vs vehicle. The text has this: Harmaline-induced tremor in rats is a commonly accepted animal model that is predictive of essential tremor and related movement disorders in human (Miwa H, et. al., Differential expression of c-Fos following administration of two tremorgenic agents: harmaline and oxotremorine, NeuroReport, 2000, 11 (11), 2385-2390; Stanford J A and Fowler S C, At low doses, harmaline increases forelimb tremor in the rat, Neurosci. Lett., 1998, 241 (1), 41-44; Sinton C M, The effectiveness of different isomers of octanol as blockers of harmaline-induced tremor, Pfluegers Arch., 1989, 414 (1), 31-6).
An enantiomer of Formula (Ib) was evaluated for efficacy in treating essential tremor and related movement disorders with doses up to 30 mg/kg. The enantiomer of Formula (Ib) or vehicle (0.5% hydroxypropyl methylcellulose) was administered orally by gavage in a dose volume equivalent to 5 mL/kg to Sprague-Dawley rats (135 to 275 g). Harmaline (6 mg/kg in volume of 5 mL/kg, i.p.) was administered 60 min thereafter. Immediately after the harmaline administration, rats were placed individually in a blinded fashion in plastic cages on wood-chip bedding and observed for 30 minutes. Appearance of tremors was scored using a nine-item checklist. The checklist includes scoring for: tremors at rest, tremors during locomotion, intermittent tremors, continuous tremors, tremors provoked by tail-restraint, generalized tremors (head, body and tail), tremors of the head only, tremors of the body only and tremors of the tail only. Signs observed in rats treated with vehicle or test compound are compared by ranking tremor quality and severity.
Tremor provoked following tail-restraint was assigned a score =1. Tremors that appear continuously were assigned a score =2, while tremors that appear intermittently were assigned a score =1. The appearance of generalized tremors were assigned a score =2, while a score =1 was assigned to tremor that involves only the head, body or tail of the rat. The severity of tremor is scored subjectively as mild in intensity or as moderate or marked. […]

The test system of test [2] is essential tremor. The note with it: nine patients with essential tremor; cited from earlier work.

Take `NCC1(CC(=O)O)CCCCC1` [gabapentin, Gabapentin]: the effect on tremor result in the test on essential tremor [1] is reported as “reduced tremor in five patients”.

For `NC(=O)OC[C@@H](O)c1ccccc1Cl` [Formula (Ib)], the “Tremor Score Median” value worked out at 2.00 with harmaline-induced tremor (20 mg/kg p.o.) and 1.20 with harmaline-induced tremor (30 mg/kg p.o.). In the test on harmaline-induced tremor (Kruskal-Wallis nonparametric one-way method, rats, p.o.), the “reduction in the tremor score in drug-treated groups compared to the vehicle-treated group” value was “significant”. As for `CC1(C)O[C@@H]2[C@@H](CO[C@@]3(COS(N)(=O)=O)OC(C)(C)O[C@@H]23)O1` [Topiramate], the “patient self-rating after topiramate therapy” value in the test with essential tremor [2] is “Eight patients rated themselves as better and with less disability”.
